Laboratory results as given in patent US20100204460A1, “NATURAL BRASSINOSTEROIDS FOR USE FOR TREATING HYPERPROLIFERATION, TREATING PROLIFERATIVE DISEASES AND REDUCING ADVERSE EFFECTS OF STEROID DYSFUNCTION IN MAMMALS, PHARMACEUTICAL COMPOSITION AND ITS USE” (priority 2007, published 2010).
“Also recorded” adds a separate entry of the source. Where two headings read alike, the source gives them in different places.

Key:
[1] = tested on: malignant human melanoma cell line G361; assay: Calcein AM cytotoxicity assay, G 361; type: cell-based
[2] = tested on: normal human fibroblasts (BJ); assay: Calcein AM cytotoxicity assay, BJ; type: cell-based; conditions: read-out: IC50 assessed by Calcein AM assay of surviving cells
[3] = tested on: normal and cancer cell lines of different histopathological origin; assay: Calcein AM cytotoxicity assay, summary statements over the cell line panel; type: cell-based; conditions: for cytotoxic / growth inhibitory activity in words: tested in amounts up to 50 μmol/L per assay
Protocol: Stock solutions ([…]) were prepared by dissolving relevant quantity of substance in DMSO cultivation media (DMEM, RPMI 1640, F-12 medium), fetal bovine serum (FBS), L-glutamine, penicillin, and streptomycin were purchased from Sigma (MO, USA). 3-(4,5-Dimethylthiazol-2-yl)-2,5-diphenyltetrazolium bromide (MTT) was from Serva Electrophoresis (Heidelberg, Germany). Monoclonal mouse anti-bromodeoxyuridine (BrdU) intibody was obtained from DakoCytomation (Glostrup, Denmark). Calcein AM was obtained from PAA Laboratories GmbH (Pasching, Austria). The screening cell lines (T-lymphoblastic leukaemia cell line CEM; breast carcinoma cell line MCF-7 (estrogen-sensitive), breast adenocarcinoma cell line MDA-MB 468 (cell lines LNCaP (androgen-sensitive), prostate carcinoma cell line DU-145 ([…]), lung carcinoma cell line A-549, chronic myelogenous leukemia cell line K562, multiple myeloma cell line RPMI 8226, cervical carcinoma cell line HeLa, malignant human melanoma cell line G361, osteosarcoma cell line HOS, and normal human fibroblasts (BJ) were obtained from the American Type Culture Collection (Manassas, Va., USA). MCF-7 cells were cultured in F-12 medium (Sigma, MO, USA). LNCaP cells were cultured in RPMI 1640 medium (GIBCO, USA). All other cells were cultured in DMEM medium (Sigma, MO, USA). All used media were supplemented with 10% heat-inactivated fetal bovine serum, 2 mmol/L L-glutamine, 1% penicillin/streptomycin. The cell lines were maintained under standard cell culture conditions at 37° C. and 5% CO2 in a humid environment. Cells were subcultured twice or three times a week using the standard trypsinization procedure (Sigma, USA).
The cell suspension of approximate density of 1.25×10^5 cells/mL was redistributed into 96-well microtitre plates and after 12 h of stabilization the tested Brassinosteroids (BRs) were added in different concentrations. BRs were dissolved in DMSO. Control cultures were treated with DMSO alone. The final concentration of DMSO in the reaction mixture never exceeded 1%. Tested compounds in given concentrations were added at time zero in 20 μL aliquots to the microtiter plate wells. Usually, each test compound was evaluated at six 4-fold dilutions. In routine testing, the highest well concentration was 50 μmol, but it can be the matter of change dependent on the agent. Cultivation proceeds 96 h at 37° C., the cells were incubated with Calcein AM solution (Molecular Probes) for 1 h. Fluorescence (OD) of viable cells was quantified with Fluoroscan Ascent (Microsystems). The cell survival (IC50) was calculated using the following equation: IC50=(ODdrug exposed well/mean ODcontrol wells)×100%. Each compound was tested in triplicates and the test was repeated at least 3 times. The IC50 value, corresponding to drug concentration lethal to 50% of the tumor cells, was calculated from the obtained dose response curves.
We investigated effects of brassinosteroid on viability of normal and cancer cell lines of different histopathological origin. To evaluate the cytotoxic properties of several BRs and some related steroids, we used T-lymphoblastic leukaemia cell line CEM, breast carcinoma cell line MCF-7, lung carcinoma cell line A-549, chronic myeloid leukaemia cell line K562, multiple myeloma cell line RPMI 8226, cervical carcinoma cell line HeLa, malignant melanoma cell line G361, osteosarcoma cell line HOS, and normal human fibroblasts BJ. The cells were exposed to six 4-fold dilutions of each drug for 72 h to determinate number of surviving cells.

[4] = tested on: multiple myeloma cell line RPMI 8226; assay: Calcein AM cytotoxicity assay, RPMI 8226; type: cell-based; conditions: exposure 72 h (b71 says 96 h), mean ± SD
[5] = tested on: T-lymphoblastic leukaemia cell line CEM; assay: Calcein AM cytotoxicity assay, CEM; type: cell-based; conditions: read-out: IC50 assessed by Calcein AM assay of surviving cells
arena viruses = conditions: cited from earlier work
measles virus (MV) = conditions: cited from earlier work
[6] = tested on: herpes simplex virus type 1 (HSV-1); conditions: cited from earlier work
[7] = Homo sapiens, G 361, exposure 72 h (b71 says 96 h), mean ± SD, read-out: IC50 assessed by Calcein AM assay of surviving cells
[8] = Homo sapiens, Fibroblast, BJ normal fibroblasts, exposure 72 h (b71 says 96 h), mean ± SD
[9] = Homo sapiens, RPMI-8226, RPMI 8226, read-out: IC50 assessed by Calcein AM assay of surviving cells
[10] = CEM, six 4-fold dilutions, exposure 72 h (b71 says 96 h), mean ± SD
[11] = G 361, exposure 72 h (b71 says 96 h), mean ± SD, read-out: IC50 assessed by Calcein AM assay of surviving cells
[12] = BJ normal fibroblasts, exposure 72 h (b71 says 96 h), mean ± SD
[13] = RPMI 8226, read-out: IC50 assessed by Calcein AM assay of surviving cells
[14] = Homo sapiens, G-361, read-out: IC50 assessed by Calcein AM assay of surviving cells
[15] = Homo sapiens, RPMI-8226, read-out: IC50 assessed by Calcein AM assay of surviving cells, RPMI 8226

SMILES	cytotoxic / growth inhibitory activity in words [3]	IC50 [5, 10]	IC50 [1, 11]	IC50 [2, 12]	IC50 [4, 13]	also measured
CC(C)CCC[C@@H](C)[C@H]1CC[C@H]2[C@@H]3CC[C@H]4CCCC[C@]4(C)[C@H]3CC[C@]12C [5α-cholestane]	Almost zero activity	> 50 µM	–	–	–	IC50 [1, 7]: > 50 µM; IC50 [2, 8]: > 50 µM; IC50 [4, 9]: > 50 µM
CC(C)[C@@H](C)[C@H](O)[C@@H](O)[C@@H](C)[C@H]1CC[C@H]2[C@@H]3COC(=O)[C@H]4C[C@H](O)[C@H](O)C[C@]4(C)[C@H]3CC[C@]12C [22S,23S-24-Epibrassinolide]	–	> 50 µM	> 50 µM	> 50 µM	> 50 µM	–
CC(C)[C@@H](C)[C@H](O)[C@@H](O)[C@@H](C)[C@H]1CC[C@H]2[C@@H]3CC(=O)[C@H]4C[C@H](O)[C@H](O)C[C@]4(C)[C@H]3CC[C@]12C [22S,23S-24-Epicastasterone]	–	49 ± 1.8 µM	> 50 µM	> 50 µM	> 50 µM	–
CC[C@@H](C(C)C)[C@H](O)[C@@H](O)[C@@H](C)[C@H]1CC[C@H]2[C@@H]3COC(=O)[C@H]4C[C@H](O)[C@H](O)C[C@]4(C)[C@H]3CC[C@]12C [22S,23S-28-Homobrassinolide]	–	35 ± 2.2 µM	> 50 µM	> 50 µM	31 ± 7.3 µM	IC50 ([3]; range over RPMI 8226 and CEM values of Table 1): 31 to 35 µM
CC[C@@H](C(C)C)[C@H](O)[C@@H](O)[C@@H](C)[C@H]1CC[C@H]2[C@@H]3CC(=O)[C@H]4C[C@H](O)[C@H](O)C[C@]4(C)[C@H]3CC[C@]12C [22S,23S-28-Homocastasterone]	–	24 ± 1.5 µM	45 ± 2.2 µM	> 50 µM	25 µM	–
CC(C)[C@@H](C)/C=C/[C@@H](C)[C@H]1CC[C@H]2[C@@H]3CC=C4C[C@@H](O)CC[C@]4(C)[C@H]3CC[C@]12C [Brassicasterol]	Almost zero activity	> 50 µM	> 50 µM	> 50 µM	> 50 µM	–
CC(C)[C@H](C)[C@@H](O)[C@H](O)[C@@H](C)[C@H]1CCC2C3COC(=O)C4C[C@H](O)[C@H](O)C[C@]4(C)C3CC[C@@]21C (some centres unmarked) [Brassinosteroid 1]	–	–	–	–	–	IC50 [1, 14]: > 50 µM; IC50 ([2]; Homo sapiens, Fibroblast): > 50 µM; IC50 [4, 15]: > 50 µM; IC50 [5]: > 50 µM
CC[C@@H](C(C)C)[C@@H](O)[C@H](O)[C@@H](C)[C@H]1CC[C@H]2[C@@H]3COC(=O)[C@H]4C[C@H](O)[C@H](O)C[C@]4(C)[C@H]3CC[C@]12C [Brassinosteroid 2, 28-Homobrassinolide]	–	–	–	–	–	in vitro antiviral activity (arena viruses): in vitro antiviral activity; in vitro antiviral activity (measles virus (MV)): in vitro antiviral activity; in vitro antiviral activity [6]: in vitro antiviral activity
CC[C@@H](C(C)C)[C@@H](O)[C@H](O)[C@@H](C)[C@H]1CCC2C3COC(=O)C4C[C@H](O)[C@H](O)C[C@]4(C)C3CC[C@@]21C (some centres unmarked) [Brassinosteroid 2]	–	48 ± 1.3 µM	–	–	–	IC50 [1, 7]: > 50 µM; IC50 [2, 8]: > 50 µM; IC50 [4, 9]: > 50 µM
CC(C)[C@H](C)[C@@H](O)[C@H](O)[C@@H](C)[C@H]1CC[C@H]2[C@@H]3CC(=O)[C@H]4C[C@H](O)[C@H](O)C[C@]4(C)[C@H]3CC[C@]12C [Brassinosteroid 8, Castasterone]	high cytotoxicity	–	–	–	–	–
CC(C)[C@H](C)[C@@H](O)[C@H](O)[C@@H](C)[C@H]1CCC2C3CC(=O)C4C[C@H](O)[C@H](O)C[C@]4(C)C3CC[C@@]21C (some centres unmarked) [Brassinosteroid 8]	–	16 ± 5.3 µM	–	–	–	IC50 [1, 7]: > 50 µM; IC50 [2, 8]: > 50 µM; IC50 [4, 9]: 33 ± 1.3 µM
CC(C)[C@H](C)[C@@H](O)[C@H](O)[C@@H](C)[C@H]1CCC2C3CC(=O)C4C[C@H](O)[C@@H](O)C[C@]4(C)C3CC[C@@]21C (some centres unmarked) [Brassinosteroid 16]	–	> 50 µM	> 50 µM	> 50 µM	> 50 µM	–
CC(C)CCC[C@@H](C)[C@H]1CC[C@H]2[C@@H]3CC=C4C[C@@H](O)CC[C@]4(C)[C@H]3CC[C@]12C [Cholesterol]	–	> 50 µM	–	–	38 ± 2.9 µM	IC50 [1, 7]: > 50 µM; IC50 [2, 8]: > 50 µM; IC50 [4, 9]: > 30 µM
CC[C@H](CC[C@@H](C)[C@H]1CC[C@H]2[C@@H]3CC=C4C[C@@H](O)CC[C@]4(C)[C@H]3CC[C@]12C)C(C)C [Sitosterol]	Almost zero activity	> 50 µM	> 50 µM	> 50 µM	32 ± 1.6 µM	–
CC[C@H](/C=C/[C@@H](C)[C@H]1CC[C@H]2[C@@H]3CC=C4C[C@@H](O)CC[C@]4(C)[C@H]3CC[C@]12C)C(C)C [Stigmasterol]	Almost zero activity	–	–	–	–	IC50 [1, 14]: > 50 µM; IC50 ([2]; Homo sapiens, Fibroblast): > 50 µM; IC50 [4, 15]: > 30 µM; IC50 ([4]; read-out: IC50 assessed by Calcein AM assay of surviving cells, RPMI 8226): 32 ± 0.6 µM; IC50 [5]: > 50 µM
CC(C)(O)CC[C@@H](O)[C@](C)(O)[C@H]1CC[C@@]2(O)C3=CC(=O)[C@@H]4C[C@@H](O)[C@@H](O)C[C@]4(C)[C@H]3CC[C@]12C [β-ecdyson]	–	> 50 µM	> 50 µM	> 50 µM	> 50 µM	cytotoxic / growth inhibitory activity in words ([3]; listed as β-ecdysone): Almost zero activity; also recorded: zero growth inhibitory activity
